What was measured:
Experiment in all cases: Test J Compounds 2 and 6 alone and in combination with other herbicides, foliage spray
Conditions in all cases: applied alone
wheat (TRZAS) = type: in vivo, Triticum aestivum; parameters: key: 0 = no effect, 100 = complete control
From the text: (§1) Colby's Equation was used to calculate the expected additive herbicidal effect of the mixtures of Compound 6 with Harmony® Extra (i.e. a 2:1 mixture by weight of thifensulfuron-methyl and tribenuron-methyl). Colby's Equation (Colby, S. R. “Calculating Synergistic and Antagonistic Responses of Herbicide Combinations,” Weeds, 15(1), pp 20-22 (1967)) calculates the expected additive effect of herbicidal mixtures, and for two active ingredients is of the form: Pa+b=Pa+Pb−(PaPb/100) wherein • Pa+b is the percentage effect of the mixture expected from additive contribution of the individual components, • Pa is the observed percentage effect of the first active ingredient at the same use rate as in the mixture, and • Pb is the observed percentage effect of the second active ingredient at the same use rate as in the mixture.
(§2) Seeds of test plants consisting of barnyardgrass (ECHCG; Echinochloa crus-galli (L.) Beauv.), blackgrass (ALOMY; Alopecurus myosuroides Huds.), Surinam grass (BRADC; Urochloa decumbens (Staph) R. D. Webster, previously named Brachiaria decumbens Stapf), cocklebur (XANST, Xanthium strumarium L.), corn (ZEAMD, Zea mays L. cv. ‘Pioneer 33G26’), large crabgrass (DIGSA, Digitaria sanguinalis (L.) Scop.), giant foxtail (SETFA, Setaria faberi Herrm.), lambsquarters (CHEAL, Chenopodium album L.), morningglory (IPOCO, Ipomoea coccinea L.), pigweed (AMARE, Amaranthus retroflexus L.), velvetleaf (ABUTH, Abutilon theophrasti Medik.) wheat (TRZAS, Triticum aestivum L. cv. ‘Recital’) and wild oat (AVEFA, Avena fatua L.) were planted in Redi-Earth® planting medium (Scotts Company, 14111 Scottslawn Road, Marysville, Ohio 43041) comprising spaghnum peat moss and vermiculite. Seeds of small-seeded species were planted about 1 cm deep; larger seeds were planted about 2.5 cm deep. Plants were grown in a greenhouse using supplemental lighting to maintain a photoperiod of about 14 hours; daytime and nighttime temperatures were about 24-30° C. and 22-25° C., respectively. Balanced fertilizer was applied through the watering system. The plants were grown for 7 to 11 days so that at time of treatment the plants ranged in height from 2 to 18 cm (1- to 4-leaf stage). Treatments consisted of Compounds 2 and 6 (technical material), atrazine (90DF), terbacil (Sinbar® 80DF), hexazinone (Velpar® 75WG), diuron (Karmex® 80WP) and paraquat (Gramoxone® Extra, 37%) alone and in combination, suspended or dissolved in an aqueous solvent comprising a nonionic surfactant and applied as a foliage spray using a volume of 541 L/ha. Each treatment was triply replicated. […] Treated plants and controls were maintained in the greenhouse and watered as needed with care to not wet the foliage for the first 24 hours after treatment. The effects on the plants 15 days after treatment were visually compared to untreated controls. Plant response ratings, listed in Table J as the means of the thee replicates, are based on a scale of 0 to 100 where 0 is no effect and 100 is complete control. Also listed in Table J are the expected effects for the mixtures calculated using Colby's Equation.

Surinam grass (BRADC) = type: in vivo, Urochloa decumbens; parameters: key: 0 = no effect, 100 = complete control
From the text: as §1, §2

pigweed (AMARE) = type: in vivo, Amaranthus retroflexus; parameters: key: 0 = no effect, 100 = complete control
From the text: as §1, §2

wild oat (AVEFA) = type: in vivo, Avena fatua; parameters: key: 0 = no effect, 100 = complete control
From the text: as §1, §2

barnyardgrass (ECHCG) = type: in vivo, Echinochloa crus-galli; parameters: key: percentage herbicidal effect (observed)
From the text: as §1, §2

lambsquarters (CHEAL) = type: in vivo, Chenopodium album; parameters: key: % herbicidal effect (observed)
From the text: as §1, §2

corn (ZEAMD) = type: in vivo, Zea mays; parameters: key: percentage herbicidal effect (observed)
From the text: as §1, §2

giant foxtail (SETFA) = type: in vivo, Setaria faberi; parameters: key: 0 = no effect, 100 = complete control
From the text: as §2

velvetleaf (ABUTH) = type: in vivo, Abutilon theophrasti; parameters: key: 0 = no effect, 100 = complete control
From the text: as §1, §2

blackgrass (ALOMY) = type: in vivo, Alopecurus myosuroides; parameters: key: 0 = no effect, 100 = complete control
From the text: as §1, §2

morningglory (IPOCO) = type: in vivo, Ipomoea coccinea; parameters: key: 0 = no effect, 100 = complete control
From the text: as §2

cocklebur (XANST) = type: in vivo, Xanthium strumarium; parameters: key: 0 = no effect, 100 = complete control
From the text: as §2

large crabgrass (DIGSA) = type: in vivo, Digitaria sanguinalis; parameters: key to DIGSA Obsd.: 0 = no effect, 100 = complete control
From the text: as §1, §2

SMILES: CN(C)c1nc(=O)n(C2CCCCC2)c(=O)n1C [hexazinone]
- TRZAS Obsd. (wheat (TRZAS); 100 g a.i./ha): 35
- TRZAS Obsd. (wheat (TRZAS); 200 g a.i./ha): 60
- BRADC Obsd. (Surinam grass (BRADC); 100 g a.i./ha): 62
- BRADC Obsd. (Surinam grass (BRADC); 200 g a.i./ha): 70
- AMARE Obsd. (pigweed (AMARE); 100 g a.i./ha): 88
- AMARE Obsd. (pigweed (AMARE); 200 g a.i./ha): 80
- AVEFA Obsd. (wild oat (AVEFA); 100 g a.i./ha): 53
- AVEFA Obsd. (wild oat (AVEFA); 200 g a.i./ha): 62
- ECHCG Obsd. (barnyardgrass (ECHCG); 100 g a.i./ha): 15
- ECHCG Obsd. (barnyardgrass (ECHCG); 200 g a.i./ha): 53
- CHEAL Obsd. (lambsquarters (CHEAL); 100 g a.i./ha): 78
- CHEAL Obsd. (lambsquarters (CHEAL); 200 g a.i./ha): 87
- ZEAMD Obsd. (corn (ZEAMD); 100 g a.i./ha): 45
- ZEAMD Obsd. (corn (ZEAMD); 200 g a.i./ha): 53
- SETFA Obsd. (giant foxtail (SETFA); 100 g a.i./ha): 28
- SETFA Obsd. (giant foxtail (SETFA); 200 g a.i./ha): 45
- ABUTH Obsd. (velvetleaf (ABUTH); 100 g a.i./ha): 82
- ABUTH Obsd. (velvetleaf (ABUTH); 200 g a.i./ha): 77
- ALOMY Obsd. (blackgrass (ALOMY); 100 g a.i./ha): 40
- ALOMY Obsd. (blackgrass (ALOMY); 200 g a.i./ha): 78
- IPOCO Obsd. (morningglory (IPOCO); 100 g a.i./ha): 92
- IPOCO Obsd. (morningglory (IPOCO); 200 g a.i./ha): 100
- XANST Obsd. (cocklebur (XANST); 100 g a.i./ha): 100
- XANST Obsd. (cocklebur (XANST); 200 g a.i./ha): 100
- DIGSA Obsd. (large crabgrass (DIGSA); 100 g a.i./ha): 38
- DIGSA Obsd. (large crabgrass (DIGSA); 200 g a.i./ha): 53

SMILES: C[n+]1ccc(-c2cc[n+](C)cc2)cc1 [paraquat]
- TRZAS Obsd. (wheat (TRZAS); 31 g a.i./ha): 35
- TRZAS Obsd. (wheat (TRZAS); 62 g a.i./ha): 83
- BRADC Obsd. (Surinam grass (BRADC); 31 g a.i./ha): 67
- BRADC Obsd. (Surinam grass (BRADC); 62 g a.i./ha): 95
- AMARE Obsd. (pigweed (AMARE); 31 g a.i./ha): 90
- AMARE Obsd. (pigweed (AMARE); 62 g a.i./ha): 100
- AVEFA Obsd. (wild oat (AVEFA); 31 g a.i./ha): 42
- AVEFA Obsd. (wild oat (AVEFA); 62 g a.i./ha): 63
- ECHCG Obsd. (barnyardgrass (ECHCG); 31 g a.i./ha): 45
- ECHCG Obsd. (barnyardgrass (ECHCG); 62 g a.i./ha): 77
- CHEAL Obsd. (lambsquarters (CHEAL); 31 g a.i./ha): 95
- CHEAL Obsd. (lambsquarters (CHEAL); 62 g a.i./ha): 100
- ZEAMD Obsd. (corn (ZEAMD); 31 g a.i./ha): 43
- ZEAMD Obsd. (corn (ZEAMD); 62 g a.i./ha): 63
- SETFA Obsd. (giant foxtail (SETFA); 31 g a.i./ha): 72
- SETFA Obsd. (giant foxtail (SETFA); 62 g a.i./ha): 88
- ABUTH Obsd. (velvetleaf (ABUTH); 31 g a.i./ha): 70
- ABUTH Obsd. (velvetleaf (ABUTH); 62 g a.i./ha): 92
- ALOMY Obsd. (blackgrass (ALOMY); 31 g a.i./ha): 60
- ALOMY Obsd. (blackgrass (ALOMY); 62 g a.i./ha): 73
- IPOCO Obsd. (morningglory (IPOCO); 31 g a.i./ha): 58
- IPOCO Obsd. (morningglory (IPOCO); 62 g a.i./ha): 90
- XANST Obsd. (cocklebur (XANST); 31 g a.i./ha): 100
- XANST Obsd. (cocklebur (XANST); 62 g a.i./ha): 87
- DIGSA Obsd. (large crabgrass (DIGSA); 31 g a.i./ha): 78
- DIGSA Obsd. (large crabgrass (DIGSA); 62 g a.i./ha): 85

SMILES: Cc1[nH]c(=O)n(C(C)(C)C)c(=O)c1Cl [terbacil]
- TRZAS Obsd. (wheat (TRZAS); 250 g a.i./ha): 55
- TRZAS Obsd. (wheat (TRZAS); 500 g a.i./ha): 90
- BRADC Obsd. (Surinam grass (BRADC); 250 g a.i./ha): 75
- BRADC Obsd. (Surinam grass (BRADC); 500 g a.i./ha): 73
- AMARE Obsd. (pigweed (AMARE); 250 g a.i./ha): 63
- AMARE Obsd. (pigweed (AMARE); 500 g a.i./ha): 97
- AVEFA Obsd. (wild oat (AVEFA); 250 g a.i./ha): 68
- AVEFA Obsd. (wild oat (AVEFA); 500 g a.i./ha): 97
- ECHCG Obsd. (barnyardgrass (ECHCG); 250 g a.i./ha): 15
- ECHCG Obsd. (barnyardgrass (ECHCG); 500 g a.i./ha): 63
- CHEAL Obsd. (lambsquarters (CHEAL); 250 g a.i./ha): 93
- CHEAL Obsd. (lambsquarters (CHEAL); 500 g a.i./ha): 100
- ZEAMD Obsd. (corn (ZEAMD); 250 g a.i./ha): 30
- ZEAMD Obsd. (corn (ZEAMD); 500 g a.i./ha): 75
- SETFA Obsd. (giant foxtail (SETFA); 250 g a.i./ha): 18
- SETFA Obsd. (giant foxtail (SETFA); 500 g a.i./ha): 55
- ABUTH Obsd. (velvetleaf (ABUTH); 250 g a.i./ha): 92
- ABUTH Obsd. (velvetleaf (ABUTH); 500 g a.i./ha): 100
- ALOMY Obsd. (blackgrass (ALOMY); 250 g a.i./ha): 62
- ALOMY Obsd. (blackgrass (ALOMY); 500 g a.i./ha): 97
- IPOCO Obsd. (morningglory (IPOCO); 250 g a.i./ha): 78
- IPOCO Obsd. (morningglory (IPOCO); 500 g a.i./ha): 100
- XANST Obsd. (cocklebur (XANST); 250 g a.i./ha): 68
- XANST Obsd. (cocklebur (XANST); 500 g a.i./ha): 97
- DIGSA Obsd. (large crabgrass (DIGSA); 250 g a.i./ha): 45
- DIGSA Obsd. (large crabgrass (DIGSA); 500 g a.i./ha): 48
